Source: ChEMBL document CHEMBL1201862, “PubChem BioAssay data set” (2004)
Active and inactive are the calls of the source.

Tests used:
[1] = target: Cyclin-dependent kinase 5/CDK5 activator 1 (Homo sapiens, UniProt Q00535); experiment: CDK5/p35 kinase inhibitors, dose response, biochemical, cherry-picked samples, set 2 (AID 504545)
[2] = target: Protein S100-A4 (Homo sapiens, UniProt P26447); experiment: S100A4-myosin IIA binding inhibitor potency, dose response, biochemical, fluorescence polarization, cherry-picked hits (AID 687001); type: functional
[3] = target: Eukaryotic translation initiation factor 4H (Homo sapiens, UniProt Q15056); experiment: human eIF4H binding inhibitors, primary screen, translation initiation inhibitor project, biochemical, uHTS, fluorescence polarization (AID 2012)
[4] = target: T1, Polyadenylate-binding protein 1 (Homo sapiens, UniProt P11940); experiment: PABP poly(A) RNA binding inhibitors, primary screen, biochemical, fluorescence polarization, uHTS (AID 2014)
[5] = tested on: HEK293; experiment: Cytotoxicity assay in HEK293 cells. [Related pubchem assays (depositor defined):AID1266, AID1269, AID1270, AID1271, AID1280, AID1281, AID1282, AID1283, AID1287, AID1289, AID1290, AID1291, AID1292, AID1293, AID1294, AID1295, AID1299, AID1302, AID1364, AID1365, AID1366, AID1367, AID1369, AID1370, AID1371, AID1372, AID1373, AID1374, AID1375, AID1384 …; type: functional, cell-based; details: Homo sapiens
[6] = tested on: HEK293; experiment: PMA/Ionomycin induced NF-kB luciferase assay in 293- NF-kB-Luc stable cells. [Related pubchem assays: 1299, 1270, 1295, 1375, 1287, 1281, 1293, 1291, 1289, 1280, 465, 1364, 1282, 1372, 1365, 1370, 1367, 1366, 1269, 1373, 1292, 1290, 1302, 1371, 1283, 1271, 1294, 1374, 1368, 1369 ]; type: functional, cell-based; details: Homo sapiens
[7] = tested on: HEK293; experiment: PMA/Ionomycin-induced IL-8 production in HEK293- NF-kB-Luc stable cells. [Related pubchem assays: 1299, 1295, 1375, 1287, 1281, 1293, 1291, 1289, 1280, 465, 1364, 1282, 1372, 1365, 1367, 1366, 1266, 1269, 1373, 1292, 1290, 1302, 1371, 1283, 1271, 1294, 1374, 1368, 1369 ]; type: functional, cell-based; details: Homo sapiens
[8] = target: Luciferin 4-monooxygenase (Photinus pyralis, UniProt P08659); experiment: In vitro luciferase assay using purified luciferase. [Related pubchem assays: 1299, 1270, 1295, 1375, 1287, 1281, 1293, 1291, 1289, 1280, 465, 1364, 1282, 1372, 1365, 1370, 1367, 1366, 1266, 1373, 1292, 1290, 1302, 1371, 1283, 1271, 1294, 1374, 1368, 1369 ]
[9] = tested on: HEK293; experiment: SAR Analysis of small molecule inhibitors of T-cell specific antigen receptor-induced NF-kB activation in a HEK-293T cell line using a luminescence assay - Set 2. [Related pubchem assays (depositor defined):AID435003, AID435012, AID489026]; type: functional, cell-based; details: Homo sapiens
[10] = tested on: HEK293; experiment: cytotoxicity in HEK293T NF-kB-Luc cells, SAR follow-up, cytotoxicity control for NF-kB activator project, cell-based, resazurin fluorescence (AID 493251); type: functional; details: Homo sapiens
[11] = tested on: HEK293; experiment: TNF Induced NF-kB Luciferase in 293-NF-kB-Luc Stable Cells. [Related pubchem assays: 1266, 1299, 1269, 1373, 1292, 1290, 1302, 1371, 1283, 1270, 1295, 1271, 1375, 1294, 1374, 1281, 1293, 1291, 1289, 1280, 465, 1368, 1364, 1282, 1372, 1365, 1369, 1370, 1367, 1366 ]; type: functional, cell-based; details: Homo sapiens
[12] = tested on: Jurkat; experiment: SAR Analysis of small molecule inhibitors of T-cell specific antigen receptor-induced NF-kB activation in a Jurkat cell line using a luminescence assay - Set 2. [Related pubchem assays (depositor defined):AID435003, AID435012, AID465]; type: functional, cell-based; details: Homo sapiens
[13] = target: T1, Polyadenylate-binding protein 1; experiment: PABP1 MLLE–PAM2 binding inhibitor potency, dose response, biochemical, fluorescence polarization, FITC-PAM2 peptide (AID 602259); type: functional; details: read-out: IC50_Mean
[14] = target: T2, Replicative DNA helicase DnaB (Mycobacterium tuberculosis, UniProt P9WMR3); experiment: DnaB intein splicing inhibitors, dose response, biochemical, cell-free fluorescence (AID 449749); type: functional
T2 sequence (P9WMR3 whole entry): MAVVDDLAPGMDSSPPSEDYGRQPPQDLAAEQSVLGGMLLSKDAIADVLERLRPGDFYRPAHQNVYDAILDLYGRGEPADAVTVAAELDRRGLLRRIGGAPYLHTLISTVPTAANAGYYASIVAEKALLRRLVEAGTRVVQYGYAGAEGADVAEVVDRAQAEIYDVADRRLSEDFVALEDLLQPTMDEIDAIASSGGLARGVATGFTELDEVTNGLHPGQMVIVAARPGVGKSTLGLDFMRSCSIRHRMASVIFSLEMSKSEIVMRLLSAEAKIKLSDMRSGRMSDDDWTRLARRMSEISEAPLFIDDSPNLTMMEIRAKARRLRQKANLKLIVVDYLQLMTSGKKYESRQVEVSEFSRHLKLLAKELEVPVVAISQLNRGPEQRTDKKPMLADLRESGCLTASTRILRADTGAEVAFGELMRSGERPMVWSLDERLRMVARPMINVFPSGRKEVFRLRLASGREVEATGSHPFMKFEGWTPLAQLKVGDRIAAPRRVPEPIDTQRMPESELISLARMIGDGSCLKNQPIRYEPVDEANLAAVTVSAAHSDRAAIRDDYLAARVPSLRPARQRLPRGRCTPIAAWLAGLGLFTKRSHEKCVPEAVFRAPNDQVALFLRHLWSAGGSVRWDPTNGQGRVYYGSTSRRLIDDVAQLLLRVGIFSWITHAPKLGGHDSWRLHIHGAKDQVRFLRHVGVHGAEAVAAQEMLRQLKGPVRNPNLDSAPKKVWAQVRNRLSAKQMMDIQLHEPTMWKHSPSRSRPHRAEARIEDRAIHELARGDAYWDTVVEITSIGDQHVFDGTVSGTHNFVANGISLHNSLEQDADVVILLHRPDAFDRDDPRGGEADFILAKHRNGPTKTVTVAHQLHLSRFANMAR

[15] = target: T1, Polyadenylate-binding protein 1; experiment: PABP1 MLLE–PAM2 interaction inhibitors, dose response, miRNA deadenylation inhibitor project, biochemical, fluorescence polarization, Cy5-PAM2 peptide, secondary (AID 602260); type: functional; details: read-out: IC50_Mean
[16] = tested on: Vero; experiment: Vero cell cytotoxicity, cytotoxicity control for flavivirus capping enzyme inhibitors (AID 588742); type: functional; details: Chlorocebus sabaeus
[17] = target: T3, Protein RecA (Mycobacterium tuberculosis, UniProt P9WHJ3); experiment: Fluorescence Cell-Free Homogeneous Dose Retest to Identify Inhibitors of RecA-Intein Splicing Activity. [Related pubchem assays (depositor defined):AID2097, AID2223, AID489010, AID492950]; type: functional
T3 sequence (P9WHJ3 whole entry): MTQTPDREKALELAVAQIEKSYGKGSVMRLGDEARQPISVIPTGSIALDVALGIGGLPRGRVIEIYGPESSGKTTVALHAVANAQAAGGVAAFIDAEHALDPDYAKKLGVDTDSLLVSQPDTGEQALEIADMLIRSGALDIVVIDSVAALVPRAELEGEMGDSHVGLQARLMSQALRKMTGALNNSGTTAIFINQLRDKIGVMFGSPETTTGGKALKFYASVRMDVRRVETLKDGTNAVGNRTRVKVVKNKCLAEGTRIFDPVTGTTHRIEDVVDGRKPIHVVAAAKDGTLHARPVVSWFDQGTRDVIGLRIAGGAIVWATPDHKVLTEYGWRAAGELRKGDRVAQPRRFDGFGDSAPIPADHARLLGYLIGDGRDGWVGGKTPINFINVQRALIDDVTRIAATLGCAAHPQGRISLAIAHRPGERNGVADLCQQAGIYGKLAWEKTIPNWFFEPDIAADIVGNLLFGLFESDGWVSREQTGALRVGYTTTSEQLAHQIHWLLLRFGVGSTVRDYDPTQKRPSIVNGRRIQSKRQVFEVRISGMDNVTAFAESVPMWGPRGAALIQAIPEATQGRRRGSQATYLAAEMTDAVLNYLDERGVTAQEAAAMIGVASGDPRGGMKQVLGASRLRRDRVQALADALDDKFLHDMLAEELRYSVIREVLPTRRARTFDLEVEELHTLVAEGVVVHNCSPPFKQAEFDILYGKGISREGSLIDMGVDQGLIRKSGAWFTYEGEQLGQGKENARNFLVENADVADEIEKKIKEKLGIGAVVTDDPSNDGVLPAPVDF

[18] = tested on: INS1; experiment: beta cell apoptosis inhibitors, cytokine rescue, dose response, luminescence, retest (AID 449756); type: functional, cell-based; details: Rattus norvegicus;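 also: cell death triggered by IL-1 beta plus TNF-alpha plus IFN-gamma mixture; protective hits raise ATP signal compared with cytokine alone wells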
[19] = target: T4, Microphthalmia-associated transcription factor (Homo sapiens, UniProt O75030); experiment: TRPM1 promoter luciferase signal decrease, dose response, MITF inhibitor project, cell-based, SK-MEL-5, cherry-picked, set 3 (AID 493073); type: functional
T4 sequence (O75030 whole entry): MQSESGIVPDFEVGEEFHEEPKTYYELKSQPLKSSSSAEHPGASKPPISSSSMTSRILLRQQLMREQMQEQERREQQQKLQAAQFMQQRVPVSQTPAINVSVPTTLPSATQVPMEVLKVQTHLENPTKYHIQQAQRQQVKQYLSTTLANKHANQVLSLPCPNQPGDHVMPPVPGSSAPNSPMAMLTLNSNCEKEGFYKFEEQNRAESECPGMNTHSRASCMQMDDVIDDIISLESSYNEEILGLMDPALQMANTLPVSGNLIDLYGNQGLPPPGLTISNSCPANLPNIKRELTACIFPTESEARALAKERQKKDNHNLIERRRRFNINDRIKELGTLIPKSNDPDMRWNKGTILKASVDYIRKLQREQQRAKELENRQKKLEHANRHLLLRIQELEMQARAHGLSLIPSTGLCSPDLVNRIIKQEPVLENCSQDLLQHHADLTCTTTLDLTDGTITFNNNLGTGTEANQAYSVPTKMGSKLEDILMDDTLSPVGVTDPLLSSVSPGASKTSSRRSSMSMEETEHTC

[20] = target: FAD-linked sulfhydryl oxidase ALR (Homo sapiens, UniProt P55789); experiment: inhibitors of human ALR sulfhydryl oxidase, dose response, biochemical, H2O2 detection, luminescence, cherry-pick (AID 493248)
[21] = tested on: A-375; experiment: A375 melanoma cell viability reduction, dose response, counter-screen for MITF modulator project, cherry-pick samples, set 2 (AID 540335); type: functional, cell-based; details: Homo sapiens
[22] = enhancers of respiration in Yfh1-depleted yeast, dose response, Friedreich's ataxia, plus single-dose screen (AID 1465); type: functional;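 also: yeast depleted of Yfh1p frataxin homolog grown on glycerol needing respiration; WST-1 tetrazolium dye reduction as measure of cellular dehydrogenase metabolic activity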
[23] = target: Hexokinase HKDC1 (Homo sapiens, UniProt Q2TB90); experiment: HKDC1 hexokinase inhibitors, dose response, biochemical, W721R variant (AID 504729); type: functional
[24] = target: T5, Intestinal-type alkaline phosphatase (Homo sapiens, UniProt P09923); experiment: human intestinal alkaline phosphatase activators, dose response, biochemical, luminescence, uHTS hits (AID 463120); type: functional
[25] = target: T5, Intestinal-type alkaline phosphatase; experiment: Dose Response confirmation of uHTS hits from a small molecule inhibitors of human intestinal alkaline phosphatase via a luminescent assay. [Related pubchem assays (depositor defined):AID2544, AID2574]; type: functional
[26] = target: Wee1-like protein kinase (Homo sapiens, UniProt P30291); experiment: G2/M cell cycle arrest in HeLa, late-stage follow-up, mechanism study for Wee1 degradation inhibitor project, FACS, panel member Wee1 Degradation (AID 2088)
[27] = target: G2/mitotic-specific cyclin-B1 (Homo sapiens, UniProt P14635); experiment: G2/M cell cycle arrest in HeLa, late-stage follow-up, mechanism study for Wee1 degradation inhibitor project, FACS, panel member Cyclin B Degradation (AID 2088)
[28] = target: Voltage-gated N-type calcium channel alpha-1B subunit/Amyloid beta A4 precursor protein-binding family A member 1 (Homo sapiens, UniProt Q00975+Q02410); experiment: disruptors of Mint-PDZ/N-type channel peptide interaction – biochemical, HTRF, set 2, SAR follow-up (AID 434980); type: functional
Voltage-gated N-type calcium channel alpha-1B subunit/Amyloid beta A4 precursor protein-binding family A member 1, sequence (Q00975 whole entry): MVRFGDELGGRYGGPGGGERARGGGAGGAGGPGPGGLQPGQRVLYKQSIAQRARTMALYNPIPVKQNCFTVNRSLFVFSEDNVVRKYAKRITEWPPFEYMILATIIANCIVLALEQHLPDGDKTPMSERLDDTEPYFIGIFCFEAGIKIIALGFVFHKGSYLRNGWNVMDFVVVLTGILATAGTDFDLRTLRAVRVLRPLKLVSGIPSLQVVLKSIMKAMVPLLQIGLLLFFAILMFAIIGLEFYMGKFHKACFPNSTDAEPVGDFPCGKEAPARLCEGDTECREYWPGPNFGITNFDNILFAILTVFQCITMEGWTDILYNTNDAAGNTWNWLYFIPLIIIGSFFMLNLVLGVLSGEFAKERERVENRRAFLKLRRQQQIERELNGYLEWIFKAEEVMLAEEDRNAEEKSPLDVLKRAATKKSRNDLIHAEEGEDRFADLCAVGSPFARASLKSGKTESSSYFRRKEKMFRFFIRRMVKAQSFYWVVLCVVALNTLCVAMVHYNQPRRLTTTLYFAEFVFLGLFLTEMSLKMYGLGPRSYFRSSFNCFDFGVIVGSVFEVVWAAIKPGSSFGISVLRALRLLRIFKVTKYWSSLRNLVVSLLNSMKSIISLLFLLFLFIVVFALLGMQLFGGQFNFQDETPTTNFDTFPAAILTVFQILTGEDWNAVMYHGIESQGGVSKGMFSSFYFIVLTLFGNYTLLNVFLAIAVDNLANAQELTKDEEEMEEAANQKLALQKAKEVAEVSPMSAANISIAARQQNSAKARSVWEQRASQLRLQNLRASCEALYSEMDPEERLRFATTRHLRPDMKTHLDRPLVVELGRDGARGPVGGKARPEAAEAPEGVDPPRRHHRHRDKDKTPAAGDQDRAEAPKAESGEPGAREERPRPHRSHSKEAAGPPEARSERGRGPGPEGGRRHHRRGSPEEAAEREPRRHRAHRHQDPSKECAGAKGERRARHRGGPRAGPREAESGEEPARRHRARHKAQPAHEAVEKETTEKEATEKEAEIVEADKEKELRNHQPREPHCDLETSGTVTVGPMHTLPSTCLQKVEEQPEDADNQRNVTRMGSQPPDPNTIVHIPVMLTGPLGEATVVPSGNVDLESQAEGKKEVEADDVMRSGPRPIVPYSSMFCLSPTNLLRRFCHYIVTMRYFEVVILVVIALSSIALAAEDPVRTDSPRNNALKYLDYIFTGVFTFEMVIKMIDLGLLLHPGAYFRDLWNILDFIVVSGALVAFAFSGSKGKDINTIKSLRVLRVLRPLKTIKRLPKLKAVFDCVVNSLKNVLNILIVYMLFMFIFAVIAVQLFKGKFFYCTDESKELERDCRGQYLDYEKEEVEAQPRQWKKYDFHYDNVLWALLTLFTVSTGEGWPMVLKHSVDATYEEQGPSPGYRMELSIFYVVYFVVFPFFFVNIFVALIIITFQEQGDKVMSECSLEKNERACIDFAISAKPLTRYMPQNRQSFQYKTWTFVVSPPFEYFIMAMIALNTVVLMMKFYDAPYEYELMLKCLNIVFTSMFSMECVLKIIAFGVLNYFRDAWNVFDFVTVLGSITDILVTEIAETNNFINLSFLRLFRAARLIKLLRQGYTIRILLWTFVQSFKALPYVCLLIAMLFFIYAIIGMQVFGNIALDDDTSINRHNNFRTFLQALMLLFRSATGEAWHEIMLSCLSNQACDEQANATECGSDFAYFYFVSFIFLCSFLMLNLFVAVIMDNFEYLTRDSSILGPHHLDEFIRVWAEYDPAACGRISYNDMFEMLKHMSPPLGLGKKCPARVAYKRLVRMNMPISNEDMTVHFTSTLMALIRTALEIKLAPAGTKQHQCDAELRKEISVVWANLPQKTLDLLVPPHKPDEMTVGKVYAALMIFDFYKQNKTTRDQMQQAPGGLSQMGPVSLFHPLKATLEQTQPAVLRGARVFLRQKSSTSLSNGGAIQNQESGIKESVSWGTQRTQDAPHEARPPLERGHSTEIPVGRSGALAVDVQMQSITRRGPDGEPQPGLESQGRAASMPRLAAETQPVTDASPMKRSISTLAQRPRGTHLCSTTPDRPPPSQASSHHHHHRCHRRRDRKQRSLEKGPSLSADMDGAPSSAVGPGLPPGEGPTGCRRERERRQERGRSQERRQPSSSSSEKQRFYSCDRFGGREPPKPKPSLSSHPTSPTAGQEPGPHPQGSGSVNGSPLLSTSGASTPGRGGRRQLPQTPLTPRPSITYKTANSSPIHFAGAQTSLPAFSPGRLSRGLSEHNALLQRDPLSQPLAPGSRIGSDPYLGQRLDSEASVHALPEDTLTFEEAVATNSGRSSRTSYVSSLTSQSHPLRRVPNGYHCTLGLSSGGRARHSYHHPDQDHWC
Voltage-gated N-type calcium channel alpha-1B subunit/Amyloid beta A4 precursor protein-binding family A member 1, sequence (Q02410 whole entry): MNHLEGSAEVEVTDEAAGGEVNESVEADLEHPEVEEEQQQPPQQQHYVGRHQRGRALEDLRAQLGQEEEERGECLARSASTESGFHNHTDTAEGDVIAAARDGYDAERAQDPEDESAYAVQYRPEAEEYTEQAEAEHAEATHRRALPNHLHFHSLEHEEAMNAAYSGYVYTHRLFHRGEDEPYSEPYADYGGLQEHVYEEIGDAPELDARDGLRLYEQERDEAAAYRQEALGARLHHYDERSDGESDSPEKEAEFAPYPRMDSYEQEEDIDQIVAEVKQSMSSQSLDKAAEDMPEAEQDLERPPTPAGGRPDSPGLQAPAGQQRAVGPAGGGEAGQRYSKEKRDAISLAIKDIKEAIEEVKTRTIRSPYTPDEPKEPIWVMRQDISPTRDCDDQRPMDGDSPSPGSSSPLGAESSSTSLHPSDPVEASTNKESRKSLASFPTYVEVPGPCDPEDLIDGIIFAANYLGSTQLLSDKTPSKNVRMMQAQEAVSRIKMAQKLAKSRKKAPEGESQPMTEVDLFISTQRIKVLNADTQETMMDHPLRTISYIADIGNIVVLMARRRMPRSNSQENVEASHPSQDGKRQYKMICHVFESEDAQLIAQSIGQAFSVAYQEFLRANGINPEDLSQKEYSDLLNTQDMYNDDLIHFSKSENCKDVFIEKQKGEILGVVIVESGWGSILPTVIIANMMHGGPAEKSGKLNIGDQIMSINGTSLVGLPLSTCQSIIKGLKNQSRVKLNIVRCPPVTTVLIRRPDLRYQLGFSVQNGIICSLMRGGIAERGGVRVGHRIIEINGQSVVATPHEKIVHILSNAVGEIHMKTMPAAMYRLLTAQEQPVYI

T1 sequence (P11940 whole entry): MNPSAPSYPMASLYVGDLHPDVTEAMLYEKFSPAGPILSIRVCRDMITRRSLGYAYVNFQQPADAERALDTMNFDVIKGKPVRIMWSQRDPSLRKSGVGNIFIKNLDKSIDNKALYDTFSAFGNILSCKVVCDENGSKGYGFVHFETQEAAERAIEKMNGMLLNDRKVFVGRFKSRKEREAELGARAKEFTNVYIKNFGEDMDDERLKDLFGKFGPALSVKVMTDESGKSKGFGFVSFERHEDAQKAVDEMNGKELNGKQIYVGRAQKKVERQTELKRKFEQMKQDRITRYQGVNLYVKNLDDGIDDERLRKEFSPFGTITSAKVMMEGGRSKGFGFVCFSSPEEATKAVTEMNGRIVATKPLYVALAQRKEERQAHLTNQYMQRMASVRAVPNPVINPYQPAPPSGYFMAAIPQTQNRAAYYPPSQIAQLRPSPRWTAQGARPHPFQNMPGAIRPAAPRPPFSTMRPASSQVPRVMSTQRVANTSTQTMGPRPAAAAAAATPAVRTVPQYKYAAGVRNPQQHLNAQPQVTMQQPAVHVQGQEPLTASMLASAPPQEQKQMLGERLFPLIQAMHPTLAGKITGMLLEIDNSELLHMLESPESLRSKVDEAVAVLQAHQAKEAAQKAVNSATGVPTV
T5 sequence (P09923 whole entry): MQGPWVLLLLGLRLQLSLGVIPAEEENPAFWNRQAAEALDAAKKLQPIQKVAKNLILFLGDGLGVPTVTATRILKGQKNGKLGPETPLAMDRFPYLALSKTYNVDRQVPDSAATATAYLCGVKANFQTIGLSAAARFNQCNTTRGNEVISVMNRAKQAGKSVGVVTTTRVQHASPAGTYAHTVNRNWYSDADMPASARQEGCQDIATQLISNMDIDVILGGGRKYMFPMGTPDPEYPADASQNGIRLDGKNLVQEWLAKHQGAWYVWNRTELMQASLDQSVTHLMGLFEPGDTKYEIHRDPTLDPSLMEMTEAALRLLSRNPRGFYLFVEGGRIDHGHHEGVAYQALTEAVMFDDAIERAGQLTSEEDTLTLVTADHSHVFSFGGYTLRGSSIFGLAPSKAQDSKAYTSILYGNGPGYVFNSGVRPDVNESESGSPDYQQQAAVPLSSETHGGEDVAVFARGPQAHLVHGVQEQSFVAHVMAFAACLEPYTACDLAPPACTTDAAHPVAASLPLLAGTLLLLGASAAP
Protein S100-A4, sequence (P26447 whole entry): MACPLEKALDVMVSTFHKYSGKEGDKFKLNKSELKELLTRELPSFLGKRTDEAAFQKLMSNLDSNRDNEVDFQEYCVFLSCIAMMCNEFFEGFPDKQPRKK
FAD-linked sulfhydryl oxidase ALR, sequence (P55789 whole entry): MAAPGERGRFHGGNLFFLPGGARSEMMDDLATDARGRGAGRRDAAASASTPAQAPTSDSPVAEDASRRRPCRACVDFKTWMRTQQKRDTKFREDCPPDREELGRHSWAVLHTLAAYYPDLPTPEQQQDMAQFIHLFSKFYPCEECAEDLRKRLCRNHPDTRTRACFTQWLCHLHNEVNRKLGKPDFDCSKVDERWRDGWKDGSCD

## COc1ccc(C(=O)c2sc(NC(C)C)nc2N)cc1OC
[1]
  AC50: 90.5 µM (active)

## Cc1cc2cc(CNC(=O)Nc3ccc(Cl)c(Cl)c3)ccc2n1C
[2]
  AC50: 1.74 µM (active)
[3]
  IC50: 5.7 µM (active)
[4]
  IC50: 4.53 µM (active)

## CCOc1ccc(NC(=O)c2ccc([N+](=O)[O-])o2)cc1
[5]
  EC50: > 8 µM (inactive)
[6]
  EC50: 2.77 µM (active)
[7]
  EC50: > 8 µM (not active)
[8]
  EC50: > 8 µM (not active)
[9]
  IC50: 39.9 µM (inactive)
[10]
  IC50: 50.6 µM (inactive)
[11]
  EC50: > 8 µM (not active)
[12]
  IC50: 38.9 µM (inactive)

## COc1ccc(S(=O)(=O)Nc2ccc(O)c3ccccc23)cc1
[13]
  IC50: > 66 µM (inactive)
[14]
  AC50: 0.0824 µM (active)
[15]
  IC50: > 66 µM (inactive)
[16]
  CC50: > 40 µM (active)
[17]
  EC50: 0.0478 µM (active)
[18]
  AC50: 4.67 µM (active)
[19]
  AC50: 9.07 µM (active)
[20]
  AC50: 18.4 µM (active)
[21]
  AC50: 33.1 µM (active)
[22]
  EC50: > 100 µM (active)
[23]
  IC50: 21 µM (inactive)

## O=C(Nc1cccc(-c2cccc(F)c2)c1)C1CCN(C2CCC2)CC1
[24]
  EC50: > 100 µM (inactive)
[25]
  IC50: > 100 µM (inactive)

## Cc1ccc(Nc2cc(C)nn2-c2nc(C)cc(O)n2)cc1
[26]
  EC50: > 55.7 µM (inactive)
[27]
  EC50: > 55.7 µM (inactive)

## O=C(NCCN1CCCCC1)c1cc(-c2ccco2)nc2ccccc12
[28]
  IC50: > 56.8 µM (inactive)
